# Results reported in ChEMBL document CHEMBL1201862, “PubChem BioAssay data set” (2004).
#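 Interpolation was linear, between the two tested concentrations surrounding the appropriate level; five concentrations were tested over 48 hours in 96-well plates. GI50 = concentration required for 50% inhibition of growth.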 Calls of active or inactive are those of the source. Cut-off read from the data, not from the text of the source: active = GI50 up to about 1.1 µM and inactive = higher.
# Columns and labels:
# Experiment in all cases: NCI-60 cell line screen, 48 h
# UACC-62 = system: UACC-62
# NCI/ADR-RES = system: NCI/ADR-RES
# PC-3 = system: PC-3
# KM12 = system: KM12
# UACC-257 = system: UACC-257
# SK-MEL-2 = system: SK-MEL-2
# K562 = system: K562
# OVCAR-3 = system: OVCAR-3
# A498 = system: A498
# MDA-N = system: MDA-N
# SNB-19 = system: SNB-19
# SF-539 = system: SF-539
# SF-295 = system: SF-295
# BT-549 = system: BT-549
# EKVX = system: EKVX
# COLO 205 = system: COLO 205
# NCI-H226 = system: NCI-H226
# DU-145 = system: DU-145
# MDA-MB-435 = system: MDA-MB-435
# Malme-3M = system: Malme-3M
# U-251 = system: U-251
# UO-31 = system: UO-31
# MDA-MB-231 = system: MDA-MB-231
# ACHN = system: ACHN
# SK-OV-3 = system: SK-OV-3
# HOP-92 = system: HOP-92
# M14 = system: M14
# T47D = system: T47D
# LOX IMVI = system: LOX IMVI
# MCF7 = system: MCF7
# RPMI-8226 = system: RPMI-8226
# RXF 393 = system: RXF 393
# 786-0 = system: 786-0
# OVCAR-5 = system: OVCAR-5
# A549 = system: A549
# CAKI-1 = system: CAKI-1
# Hs-578T = system: Hs-578T
# SN12C = system: SN12C
# IGROV-1 = system: IGROV-1
# OVCAR-4 = system: OVCAR-4
# HOP-62 = system: HOP-62
# SK-MEL-5 = system: SK-MEL-5
# HCT-116 = system: HCT-116
# NCI-H23 = system: NCI-H23
# NCI-H460 = system: NCI-H460
# HT-29 = system: HT-29
# HCT-15 = system: HCT-15
# HCC 2998 = system: HCC 2998
# SNB-75 = system: SNB-75
# SK-MEL-28 = system: SK-MEL-28
# NCI-H522 = system: NCI-H522
# SW-620 = system: SW-620
# TK-10 = system: TK-10
# SF-268 = system: SF-268
# MOLT-4 = system: MOLT-4
# OVCAR-8 = system: OVCAR-8
# HL-60 = system: HL-60
# CCRF-CEM = system: CCRF-CEM
# SR = system: SR
structure (smiles),measurement,setting,value
S=C(N/N=C\C(=N/NC(=S)N1CCCCC1)c1ccccc1)N1CCCCC1,GI50,UACC-62,1.99 µM (inactive)
same,GI50,NCI/ADR-RES,2.31 µM (inactive)
same,GI50,PC-3,1.92 µM (inactive)
same,GI50,KM12,2.03 µM (inactive)
same,GI50,UACC-257,2.14 µM (inactive)
same,GI50,SK-MEL-2,2.25 µM (inactive)
same,GI50,K562,5.68 µM (inactive)
same,GI50,OVCAR-3,1.74 µM (inactive)
same,GI50,A498,1.78 µM (inactive)
same,GI50,MDA-N,2.89 µM (inactive)
same,GI50,SNB-19,1.9 µM (inactive)
same,GI50,SF-539,2.36 µM (inactive)
same,GI50,SF-295,2.01 µM (inactive)
same,GI50,BT-549,1.88 µM (inactive)
same,GI50,EKVX,1.97 µM (inactive)
same,GI50,COLO 205,2.03 µM (inactive)
same,GI50,NCI-H226,1.84 µM (inactive)
same,GI50,DU-145,1.57 µM (inactive)
same,GI50,MDA-MB-435,1.91 µM (inactive)
same,GI50,Malme-3M,1.91 µM (inactive)
same,GI50,U-251,1.84 µM (inactive)
same,GI50,UO-31,1.74 µM (inactive)
same,GI50,MDA-MB-231,2.43 µM (inactive)
same,GI50,ACHN,1.69 µM (inactive)
same,GI50,SK-OV-3,1.91 µM (inactive)
same,GI50,HOP-92,2.38 µM (inactive)
same,GI50,M14,1.92 µM (inactive)
same,GI50,T47D,5.4 µM (inactive)
same,GI50,LOX IMVI,3.33 µM (inactive)
same,GI50,MCF7,2.81 µM (inactive)
same,GI50,RPMI-8226,46.1 µM (inactive)
same,GI50,RXF 393,1.85 µM (inactive)
same,GI50,786-0,1.85 µM (inactive)
same,GI50,OVCAR-5,1.88 µM (inactive)
same,GI50,A549,2.28 µM (inactive)
same,GI50,CAKI-1,2.15 µM (inactive)
same,GI50,Hs-578T,1.82 µM (inactive)
same,GI50,SN12C,1.95 µM (inactive)
same,GI50,IGROV-1,1.76 µM (inactive)
same,GI50,OVCAR-4,1.76 µM (inactive)
same,GI50,HOP-62,2.43 µM (inactive)
same,GI50,SK-MEL-5,1.77 µM (inactive)
same,GI50,HCT-116,2.3 µM (inactive)
same,GI50,NCI-H23,2.42 µM (inactive)
same,GI50,NCI-H460,2.14 µM (inactive)
same,GI50,HT-29,2.23 µM (inactive)
same,GI50,HCT-15,2400 nM
same,GI50,HCC 2998,2.08 µM (inactive)
same,GI50,SNB-75,2.1 µM (inactive)
same,GI50,SK-MEL-28,1.9 µM (inactive)
same,GI50,NCI-H522,1.62 µM (inactive)
same,GI50,SW-620,2 µM (inactive)
same,GI50,TK-10,1.8 µM (inactive)
same,GI50,SF-268,1.99 µM (inactive)
CC(C)CCC[C@@H](C)[C@H]1CC[C@H]2[C@@H]3CC[C@H]4C[C@H](N)CC[C@]4(C)[C@H]3CC[C@]12C,GI50,UACC-62,19.2 µM (inactive)
same,GI50,NCI/ADR-RES,26.7 µM (inactive)
same,GI50,MOLT-4,11.3 µM (inactive)
same,GI50,OVCAR-8,24.4 µM (inactive)
same,GI50,PC-3,5.87 µM (inactive)
same,GI50,KM12,23.6 µM (inactive)
same,GI50,UACC-257,19 µM (inactive)
same,GI50,K562,24.5 µM (inactive)
same,GI50,OVCAR-3,26.6 µM (inactive)
same,GI50,A498,22.2 µM (inactive)
same,GI50,MDA-N,30.9 µM (inactive)
same,GI50,SNB-19,15.6 µM (inactive)
same,GI50,SF-295,19.3 µM (inactive)
same,GI50,BT-549,23.1 µM (inactive)
same,GI50,EKVX,17.7 µM (inactive)
same,GI50,COLO 205,21 µM (inactive)
same,GI50,NCI-H226,17.3 µM (inactive)
same,GI50,DU-145,16.4 µM (inactive)
same,GI50,MDA-MB-435,27.1 µM (inactive)
same,GI50,Malme-3M,17.2 µM (inactive)
same,GI50,U-251,13.8 µM (inactive)
same,GI50,UO-31,13.5 µM (inactive)
same,GI50,MDA-MB-231,2.84 µM (inactive)
same,GI50,ACHN,17.5 µM (inactive)
same,GI50,SK-OV-3,22.6 µM (inactive)
same,GI50,HOP-92,11.7 µM (inactive)
same,GI50,M14,13.8 µM (inactive)
same,GI50,T47D,34.4 µM (inactive)
same,GI50,LOX IMVI,21.3 µM (inactive)
same,GI50,MCF7,23.8 µM (inactive)
same,GI50,RPMI-8226,20.7 µM (inactive)
same,GI50,RXF 393,22.2 µM (inactive)
same,GI50,786-0,20.4 µM (inactive)
same,GI50,OVCAR-5,15.4 µM (inactive)
same,GI50,HL-60,3.34 µM (inactive)
same,GI50,A549,16.9 µM (inactive)
same,GI50,CCRF-CEM,2.83 µM (inactive)
same,GI50,CAKI-1,16.4 µM (inactive)
same,GI50,Hs-578T,20 µM (inactive)
same,GI50,SN12C,22.9 µM (inactive)
same,GI50,IGROV-1,11.3 µM (inactive)
same,GI50,OVCAR-4,21.9 µM (inactive)
same,GI50,HOP-62,20 µM (inactive)
same,GI50,SK-MEL-5,21.5 µM (inactive)
same,GI50,HCT-116,30.1 µM (inactive)
same,GI50,NCI-H23,26.1 µM (inactive)
same,GI50,NCI-H460,22 µM (inactive)
same,GI50,HT-29,18.3 µM (inactive)
same,GI50,HCT-15,24800 nM
same,GI50,HCC 2998,16.4 µM (inactive)
same,GI50,SNB-75,18.5 µM (inactive)
same,GI50,SK-MEL-28,28.3 µM (inactive)
same,GI50,NCI-H522,21 µM (inactive)
same,GI50,SW-620,31.6 µM (inactive)
same,GI50,TK-10,16.6 µM (inactive)
same,GI50,SF-268,26 µM (inactive)
COc1cccc(-c2cc(O)c3cc(N4CCOCC4)ccc3n2)c1,GI50,UACC-62,0.0258 µM (active)
same,GI50,NCI/ADR-RES,0.0845 µM (active)
same,GI50,MOLT-4,0.0391 µM (active)
same,GI50,OVCAR-8,0.0375 µM (active)
same,GI50,PC-3,0.0364 µM (active)
same,GI50,KM12,0.0424 µM (active)
same,GI50,SR,15.8 nM (active)
same,GI50,UACC-257,0.0559 µM (active)
same,GI50,SK-MEL-2,0.0313 µM (active)
same,GI50,K562,0.0212 µM (active)
same,GI50,OVCAR-3,0.0201 µM (active)
same,GI50,MDA-N,0.0069 µM (active)
same,GI50,SNB-19,0.0543 µM (active)
same,GI50,SF-539,0.0217 µM (active)
same,GI50,SF-295,0.041 µM (active)
same,GI50,BT-549,0.964 µM (active)
same,GI50,EKVX,0.363 µM (active)
same,GI50,COLO 205,0.0204 µM (active)
same,GI50,NCI-H226,0.0383 µM (active)
same,GI50,DU-145,0.038 µM (active)
same,GI50,MDA-MB-435,0.00834 µM (active)
same,GI50,Malme-3M,0.0131 µM (active)
same,GI50,U-251,0.037 µM (active)
same,GI50,UO-31,0.0372 µM (active)
same,GI50,MDA-MB-231,0.13 µM (active)
same,GI50,ACHN,0.0524 µM (active)
same,GI50,HOP-92,0.0376 µM (active)
same,GI50,T47D,> 10 µM (inactive)
same,GI50,LOX IMVI,0.049 µM (active)
same,GI50,MCF7,0.0484 µM (active)
same,GI50,RPMI-8226,0.361 µM (active)
same,GI50,786-0,0.0411 µM (active)
same,GI50,OVCAR-5,0.151 µM (active)
same,GI50,HL-60,0.0194 µM (active)
same,GI50,A549,0.113 µM (active)
same,GI50,CCRF-CEM,0.0288 µM (active)
same,GI50,CAKI-1,0.0426 µM (active)
same,GI50,Hs-578T,0.0184 µM (active)
same,GI50,SN12C,0.0678 µM (active)
same,GI50,IGROV-1,0.0575 µM (active)
same,GI50,OVCAR-4,6.76 µM (inactive)
same,GI50,HOP-62,0.0586 µM (active)
same,GI50,SK-MEL-5,0.0231 µM (active)
same,GI50,HCT-116,0.0221 µM (active)
same,GI50,NCI-H23,0.0289 µM (active)
same,GI50,NCI-H460,0.177 µM (active)
same,GI50,HCT-15,38.3 nM
same,GI50,HCC 2998,0.0656 µM (active)
same,GI50,SNB-75,0.0377 µM (active)
same,GI50,SK-MEL-28,0.0748 µM (active)
same,GI50,NCI-H522,0.0158 µM (active)
same,GI50,SW-620,0.0324 µM (active)
same,GI50,TK-10,4.26 µM (inactive)
same,GI50,SF-268,0.0552 µM (active)
